Molecular target: ABL1-phosphorylated (Homo sapiens, UniProt P00519)
Test: KINOMEscan competition binding
Conditions: read-out: %Inh ABL1-phosphorylated

Chain of ABL1-phosphorylated (P00519 whole entry): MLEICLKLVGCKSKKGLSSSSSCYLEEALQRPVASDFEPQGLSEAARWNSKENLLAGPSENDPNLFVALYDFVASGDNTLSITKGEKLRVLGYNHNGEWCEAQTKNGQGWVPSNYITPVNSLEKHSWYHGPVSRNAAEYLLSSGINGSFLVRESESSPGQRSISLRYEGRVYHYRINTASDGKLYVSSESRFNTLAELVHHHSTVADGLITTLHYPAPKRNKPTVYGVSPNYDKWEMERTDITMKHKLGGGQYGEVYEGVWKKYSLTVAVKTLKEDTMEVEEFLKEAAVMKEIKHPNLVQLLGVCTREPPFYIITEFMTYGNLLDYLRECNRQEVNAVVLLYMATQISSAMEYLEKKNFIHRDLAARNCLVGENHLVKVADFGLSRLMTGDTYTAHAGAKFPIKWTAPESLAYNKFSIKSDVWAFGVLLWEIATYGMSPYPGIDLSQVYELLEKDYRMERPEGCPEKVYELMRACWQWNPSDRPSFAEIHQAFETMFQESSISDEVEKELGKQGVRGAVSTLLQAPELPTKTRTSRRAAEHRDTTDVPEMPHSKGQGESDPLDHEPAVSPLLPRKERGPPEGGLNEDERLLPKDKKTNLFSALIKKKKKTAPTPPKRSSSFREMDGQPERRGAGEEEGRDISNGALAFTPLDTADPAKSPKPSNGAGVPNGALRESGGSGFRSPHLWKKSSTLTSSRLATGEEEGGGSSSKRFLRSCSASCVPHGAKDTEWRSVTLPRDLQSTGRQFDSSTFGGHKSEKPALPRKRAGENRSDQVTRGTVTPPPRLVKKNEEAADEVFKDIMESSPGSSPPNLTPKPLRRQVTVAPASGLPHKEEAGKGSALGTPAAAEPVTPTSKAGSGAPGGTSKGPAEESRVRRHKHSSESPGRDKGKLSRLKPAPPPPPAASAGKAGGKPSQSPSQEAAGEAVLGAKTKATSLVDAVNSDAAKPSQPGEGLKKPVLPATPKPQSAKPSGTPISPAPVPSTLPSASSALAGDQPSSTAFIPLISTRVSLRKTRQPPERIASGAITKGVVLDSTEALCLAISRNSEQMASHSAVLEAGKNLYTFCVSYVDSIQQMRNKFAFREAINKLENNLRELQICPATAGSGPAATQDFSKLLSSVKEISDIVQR

| Compound | inhibition at 1 µM |
| --- | --- |
| O=c1cc(N2CCOCC2)nc2n(Cc3cccc(Cl)c3Cl)c(C3CC3)nn12 [UNC10225469A] | 20% |
| Cn1cc(-c2cnc(N)c3c(-c4ccc5c(c4)CCN5C(=O)Cc4ccccc4)csc23)cn1 [UNC10225012A] | 89% |
| CS(=O)(=O)Cc1ccc(Nc2nccc(-c3c(-c4cccc(NC(=O)C5CCCCC5)c4)nn4ncccc34)n2)cc1 [UNC10225159A] | 15% |
| COc1cccc(OC)c1C(=O)Nc1cccc(-c2nn3ccccc3c2-c2ccnc(Nc3cccc(F)c3)n2)c1 [UNC10225310A] | 18% |
| Cc1ccc(NC(=O)Nc2cccc(C(F)(F)F)c2)cc1 [UNC10225187A] | 23% |

Molecular target: T1, ARK5 (Homo sapiens, UniProt O60285)
T1 sequence (O60285 1-661): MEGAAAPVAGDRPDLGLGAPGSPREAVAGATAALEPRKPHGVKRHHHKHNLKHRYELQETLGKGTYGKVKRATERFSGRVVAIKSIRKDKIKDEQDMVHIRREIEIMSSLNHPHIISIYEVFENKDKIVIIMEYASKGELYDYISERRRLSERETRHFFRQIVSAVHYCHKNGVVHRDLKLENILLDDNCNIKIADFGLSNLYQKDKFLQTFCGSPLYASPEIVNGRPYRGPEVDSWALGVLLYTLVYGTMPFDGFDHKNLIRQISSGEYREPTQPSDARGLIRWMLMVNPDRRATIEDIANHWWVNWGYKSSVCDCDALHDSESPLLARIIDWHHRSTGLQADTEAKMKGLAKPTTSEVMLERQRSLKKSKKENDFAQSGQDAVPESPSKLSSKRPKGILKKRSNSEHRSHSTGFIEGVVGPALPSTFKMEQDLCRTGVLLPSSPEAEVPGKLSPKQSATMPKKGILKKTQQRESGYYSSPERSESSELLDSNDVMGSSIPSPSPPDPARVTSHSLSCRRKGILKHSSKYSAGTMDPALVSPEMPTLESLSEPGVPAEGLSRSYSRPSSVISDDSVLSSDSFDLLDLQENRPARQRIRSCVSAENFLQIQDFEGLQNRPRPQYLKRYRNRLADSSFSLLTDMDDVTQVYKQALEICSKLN
Test: KINOMEscan competition binding
Conditions: read-out: %Inh ARK5

| Compound | inhibition at 1 µM |
| --- | --- |
| O=c1cc(N2CCOCC2)nc2n(Cc3cccc(Cl)c3Cl)c(C3CC3)nn12 [UNC10225469A] | 0% |
| Cn1cc(-c2cnc(N)c3c(-c4ccc5c(c4)CCN5C(=O)Cc4ccccc4)csc23)cn1 [UNC10225012A] | 3% |
| CS(=O)(=O)Cc1ccc(Nc2nccc(-c3c(-c4cccc(NC(=O)C5CCCCC5)c4)nn4ncccc34)n2)cc1 [UNC10225159A] | 0% |
| COc1cccc(OC)c1C(=O)Nc1cccc(-c2nn3ccccc3c2-c2ccnc(Nc3cccc(F)c3)n2)c1 [UNC10225310A] | 0% |
| Cc1ccc(NC(=O)Nc2cccc(C(F)(F)F)c2)cc1 [UNC10225187A] | 0% |

Molecular target: CAMK2B (Homo sapiens, UniProt Q13554)
Sequence (Q13554 whole entry): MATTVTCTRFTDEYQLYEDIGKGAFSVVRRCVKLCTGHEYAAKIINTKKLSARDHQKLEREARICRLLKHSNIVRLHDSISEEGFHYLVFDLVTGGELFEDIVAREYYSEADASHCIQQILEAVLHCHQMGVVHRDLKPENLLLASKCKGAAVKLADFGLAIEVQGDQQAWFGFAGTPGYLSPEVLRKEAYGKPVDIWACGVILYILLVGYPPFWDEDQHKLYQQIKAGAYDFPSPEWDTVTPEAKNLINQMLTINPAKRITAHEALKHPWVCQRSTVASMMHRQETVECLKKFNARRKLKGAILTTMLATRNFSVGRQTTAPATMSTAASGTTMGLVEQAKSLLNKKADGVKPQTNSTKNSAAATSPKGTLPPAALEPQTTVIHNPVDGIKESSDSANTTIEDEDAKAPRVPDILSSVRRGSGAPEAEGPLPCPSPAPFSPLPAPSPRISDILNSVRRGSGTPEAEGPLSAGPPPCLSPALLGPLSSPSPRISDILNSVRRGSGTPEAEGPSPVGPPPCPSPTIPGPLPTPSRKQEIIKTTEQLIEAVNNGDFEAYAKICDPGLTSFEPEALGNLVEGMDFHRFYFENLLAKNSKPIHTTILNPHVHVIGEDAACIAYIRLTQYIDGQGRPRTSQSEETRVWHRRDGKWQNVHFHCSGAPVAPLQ
Test: KINOMEscan competition binding
Conditions: read-out: %Inh CAMK2B

| Compound | inhibition at 1 µM |
| --- | --- |
| O=c1cc(N2CCOCC2)nc2n(Cc3cccc(Cl)c3Cl)c(C3CC3)nn12 [UNC10225469A] | 10% |
| Cn1cc(-c2cnc(N)c3c(-c4ccc5c(c4)CCN5C(=O)Cc4ccccc4)csc23)cn1 [UNC10225012A] | 12% |
| CS(=O)(=O)Cc1ccc(Nc2nccc(-c3c(-c4cccc(NC(=O)C5CCCCC5)c4)nn4ncccc34)n2)cc1 [UNC10225159A] | 8% |
| COc1cccc(OC)c1C(=O)Nc1cccc(-c2nn3ccccc3c2-c2ccnc(Nc3cccc(F)c3)n2)c1 [UNC10225310A] | 6% |
| Cc1ccc(NC(=O)Nc2cccc(C(F)(F)F)c2)cc1 [UNC10225187A] | 25% |

Molecular target: CAMKK1 (Homo sapiens, UniProt Q8N5S9)
Sequence (Q8N5S9 whole entry): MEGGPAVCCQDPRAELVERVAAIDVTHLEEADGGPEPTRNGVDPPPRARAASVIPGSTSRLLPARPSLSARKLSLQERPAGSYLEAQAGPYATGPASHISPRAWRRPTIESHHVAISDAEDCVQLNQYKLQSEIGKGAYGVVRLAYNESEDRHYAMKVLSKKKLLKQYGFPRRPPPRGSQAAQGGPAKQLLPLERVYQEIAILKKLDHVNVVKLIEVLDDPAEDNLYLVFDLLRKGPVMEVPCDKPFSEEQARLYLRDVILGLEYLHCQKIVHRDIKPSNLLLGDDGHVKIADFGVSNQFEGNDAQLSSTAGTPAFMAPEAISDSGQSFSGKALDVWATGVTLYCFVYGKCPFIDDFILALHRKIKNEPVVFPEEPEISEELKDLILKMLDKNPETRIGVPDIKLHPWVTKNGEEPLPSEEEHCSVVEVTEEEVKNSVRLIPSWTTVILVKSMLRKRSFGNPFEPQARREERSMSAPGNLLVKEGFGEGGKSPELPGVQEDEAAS
Test: KINOMEscan competition binding
Conditions: read-out: %Inh CAMKK1

| Compound | inhibition at 1 µM |
| --- | --- |
| O=c1cc(N2CCOCC2)nc2n(Cc3cccc(Cl)c3Cl)c(C3CC3)nn12 [UNC10225469A] | 3% |
| Cn1cc(-c2cnc(N)c3c(-c4ccc5c(c4)CCN5C(=O)Cc4ccccc4)csc23)cn1 [UNC10225012A] | 11% |
| CS(=O)(=O)Cc1ccc(Nc2nccc(-c3c(-c4cccc(NC(=O)C5CCCCC5)c4)nn4ncccc34)n2)cc1 [UNC10225159A] | 0% |
| COc1cccc(OC)c1C(=O)Nc1cccc(-c2nn3ccccc3c2-c2ccnc(Nc3cccc(F)c3)n2)c1 [UNC10225310A] | 4% |
| Cc1ccc(NC(=O)Nc2cccc(C(F)(F)F)c2)cc1 [UNC10225187A] | 9% |

Molecular target: CLK2 (Homo sapiens, UniProt P49760)
Test: KINOMEscan competition binding
Conditions: read-out: %Inh CLK2

| Compound | inhibition at 1 µM |
| --- | --- |
| O=c1cc(N2CCOCC2)nc2n(Cc3cccc(Cl)c3Cl)c(C3CC3)nn12 [UNC10225469A] | 25% |
| Cn1cc(-c2cnc(N)c3c(-c4ccc5c(c4)CCN5C(=O)Cc4ccccc4)csc23)cn1 [UNC10225012A] | 19% |
| CS(=O)(=O)Cc1ccc(Nc2nccc(-c3c(-c4cccc(NC(=O)C5CCCCC5)c4)nn4ncccc34)n2)cc1 [UNC10225159A] | 10% |
| COc1cccc(OC)c1C(=O)Nc1cccc(-c2nn3ccccc3c2-c2ccnc(Nc3cccc(F)c3)n2)c1 [UNC10225310A] | 21% |
| Cc1ccc(NC(=O)Nc2cccc(C(F)(F)F)c2)cc1 [UNC10225187A] | 36% |

Molecular target: DAPK2 (Homo sapiens, UniProt Q9UIK4)
Test: KINOMEscan competition binding
Conditions: read-out: %Inh DAPK2

| Compound | inhibition at 1 µM |
| --- | --- |
| O=c1cc(N2CCOCC2)nc2n(Cc3cccc(Cl)c3Cl)c(C3CC3)nn12 [UNC10225469A] | 12% |
| Cn1cc(-c2cnc(N)c3c(-c4ccc5c(c4)CCN5C(=O)Cc4ccccc4)csc23)cn1 [UNC10225012A] | 21% |
| CS(=O)(=O)Cc1ccc(Nc2nccc(-c3c(-c4cccc(NC(=O)C5CCCCC5)c4)nn4ncccc34)n2)cc1 [UNC10225159A] | 9% |
| COc1cccc(OC)c1C(=O)Nc1cccc(-c2nn3ccccc3c2-c2ccnc(Nc3cccc(F)c3)n2)c1 [UNC10225310A] | 6% |
| Cc1ccc(NC(=O)Nc2cccc(C(F)(F)F)c2)cc1 [UNC10225187A] | 3% |

Molecular target: DDR1 (Homo sapiens, UniProt Q08345)
Test: KINOMEscan competition binding
Conditions: read-out: %Inh DDR1

| Compound | inhibition at 1 µM |
| --- | --- |
| O=c1cc(N2CCOCC2)nc2n(Cc3cccc(Cl)c3Cl)c(C3CC3)nn12 [UNC10225469A] | 21% |
| Cn1cc(-c2cnc(N)c3c(-c4ccc5c(c4)CCN5C(=O)Cc4ccccc4)csc23)cn1 [UNC10225012A] | 97.7% |
| CS(=O)(=O)Cc1ccc(Nc2nccc(-c3c(-c4cccc(NC(=O)C5CCCCC5)c4)nn4ncccc34)n2)cc1 [UNC10225159A] | 96.6% |
| COc1cccc(OC)c1C(=O)Nc1cccc(-c2nn3ccccc3c2-c2ccnc(Nc3cccc(F)c3)n2)c1 [UNC10225310A] | 99.3% |
| Cc1ccc(NC(=O)Nc2cccc(C(F)(F)F)c2)cc1 [UNC10225187A] | 43% |

Molecular target: T2, EPHB6 (Homo sapiens, UniProt O15197)
T2 sequence (O15197 32-1021): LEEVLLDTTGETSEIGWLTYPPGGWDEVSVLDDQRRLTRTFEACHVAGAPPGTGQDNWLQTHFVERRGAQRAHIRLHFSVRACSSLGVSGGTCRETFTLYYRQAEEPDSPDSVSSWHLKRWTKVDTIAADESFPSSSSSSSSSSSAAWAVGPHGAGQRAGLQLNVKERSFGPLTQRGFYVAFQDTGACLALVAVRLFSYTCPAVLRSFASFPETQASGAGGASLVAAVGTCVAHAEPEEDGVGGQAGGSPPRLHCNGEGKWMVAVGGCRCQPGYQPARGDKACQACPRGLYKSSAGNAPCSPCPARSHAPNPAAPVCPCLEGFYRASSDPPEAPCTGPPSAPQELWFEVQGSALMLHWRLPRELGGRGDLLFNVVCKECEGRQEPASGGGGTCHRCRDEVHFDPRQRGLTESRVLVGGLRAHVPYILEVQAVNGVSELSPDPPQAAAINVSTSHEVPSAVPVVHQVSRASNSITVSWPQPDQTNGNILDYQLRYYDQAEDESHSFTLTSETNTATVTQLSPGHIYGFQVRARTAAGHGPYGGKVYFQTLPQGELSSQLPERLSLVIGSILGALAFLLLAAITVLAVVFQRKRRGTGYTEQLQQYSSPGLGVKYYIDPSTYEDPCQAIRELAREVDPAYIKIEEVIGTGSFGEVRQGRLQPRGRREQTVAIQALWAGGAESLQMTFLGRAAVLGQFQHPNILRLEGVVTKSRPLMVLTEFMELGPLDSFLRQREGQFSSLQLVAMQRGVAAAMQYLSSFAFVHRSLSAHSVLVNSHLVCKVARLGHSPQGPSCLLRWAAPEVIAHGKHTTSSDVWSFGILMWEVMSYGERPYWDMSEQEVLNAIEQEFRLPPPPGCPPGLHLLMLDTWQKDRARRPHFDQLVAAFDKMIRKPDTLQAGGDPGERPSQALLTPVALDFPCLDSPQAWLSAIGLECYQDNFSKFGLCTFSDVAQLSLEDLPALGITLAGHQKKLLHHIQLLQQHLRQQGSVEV
Test: KINOMEscan competition binding
Conditions: read-out: %Inh EPHB6

| Compound | inhibition at 1 µM |
| --- | --- |
| O=c1cc(N2CCOCC2)nc2n(Cc3cccc(Cl)c3Cl)c(C3CC3)nn12 [UNC10225469A] | 33% |
| Cn1cc(-c2cnc(N)c3c(-c4ccc5c(c4)CCN5C(=O)Cc4ccccc4)csc23)cn1 [UNC10225012A] | 98.3% |
| CS(=O)(=O)Cc1ccc(Nc2nccc(-c3c(-c4cccc(NC(=O)C5CCCCC5)c4)nn4ncccc34)n2)cc1 [UNC10225159A] | 42% |
| COc1cccc(OC)c1C(=O)Nc1cccc(-c2nn3ccccc3c2-c2ccnc(Nc3cccc(F)c3)n2)c1 [UNC10225310A] | 42% |
| Cc1ccc(NC(=O)Nc2cccc(C(F)(F)F)c2)cc1 [UNC10225187A] | 21% |

Molecular target: FGFR3 (Homo sapiens, UniProt P22607)
Sequence (P22607 23-806): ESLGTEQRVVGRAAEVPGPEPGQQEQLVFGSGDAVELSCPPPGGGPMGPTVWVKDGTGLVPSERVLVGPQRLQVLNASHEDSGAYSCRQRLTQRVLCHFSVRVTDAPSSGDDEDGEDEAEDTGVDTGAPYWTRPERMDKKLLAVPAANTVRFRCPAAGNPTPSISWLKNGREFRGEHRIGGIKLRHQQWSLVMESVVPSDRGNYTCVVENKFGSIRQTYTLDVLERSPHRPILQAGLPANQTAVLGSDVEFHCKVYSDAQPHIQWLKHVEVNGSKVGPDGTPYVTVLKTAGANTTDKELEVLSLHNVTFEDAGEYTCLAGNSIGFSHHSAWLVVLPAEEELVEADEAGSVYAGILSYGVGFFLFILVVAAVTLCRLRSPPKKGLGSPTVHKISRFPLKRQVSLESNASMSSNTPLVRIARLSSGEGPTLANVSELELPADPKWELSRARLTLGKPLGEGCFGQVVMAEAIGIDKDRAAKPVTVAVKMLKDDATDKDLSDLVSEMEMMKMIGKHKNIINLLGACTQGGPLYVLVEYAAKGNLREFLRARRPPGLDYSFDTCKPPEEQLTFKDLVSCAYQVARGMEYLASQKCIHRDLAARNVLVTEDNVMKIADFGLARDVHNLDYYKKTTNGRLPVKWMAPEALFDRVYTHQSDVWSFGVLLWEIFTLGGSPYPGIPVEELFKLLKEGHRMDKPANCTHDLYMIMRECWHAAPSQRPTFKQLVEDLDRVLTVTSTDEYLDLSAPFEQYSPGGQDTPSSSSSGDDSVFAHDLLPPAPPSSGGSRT
Test: KINOMEscan competition binding
Conditions: read-out: %Inh FGFR3

| Compound | inhibition at 1 µM |
| --- | --- |
| O=c1cc(N2CCOCC2)nc2n(Cc3cccc(Cl)c3Cl)c(C3CC3)nn12 [UNC10225469A] | 0% |
| Cn1cc(-c2cnc(N)c3c(-c4ccc5c(c4)CCN5C(=O)Cc4ccccc4)csc23)cn1 [UNC10225012A] | 49% |
| CS(=O)(=O)Cc1ccc(Nc2nccc(-c3c(-c4cccc(NC(=O)C5CCCCC5)c4)nn4ncccc34)n2)cc1 [UNC10225159A] | 16% |
| COc1cccc(OC)c1C(=O)Nc1cccc(-c2nn3ccccc3c2-c2ccnc(Nc3cccc(F)c3)n2)c1 [UNC10225310A] | 0% |
| Cc1ccc(NC(=O)Nc2cccc(C(F)(F)F)c2)cc1 [UNC10225187A] | 5% |

Molecular target: FYN (Homo sapiens, UniProt P06241)
Sequence (P06241 whole entry): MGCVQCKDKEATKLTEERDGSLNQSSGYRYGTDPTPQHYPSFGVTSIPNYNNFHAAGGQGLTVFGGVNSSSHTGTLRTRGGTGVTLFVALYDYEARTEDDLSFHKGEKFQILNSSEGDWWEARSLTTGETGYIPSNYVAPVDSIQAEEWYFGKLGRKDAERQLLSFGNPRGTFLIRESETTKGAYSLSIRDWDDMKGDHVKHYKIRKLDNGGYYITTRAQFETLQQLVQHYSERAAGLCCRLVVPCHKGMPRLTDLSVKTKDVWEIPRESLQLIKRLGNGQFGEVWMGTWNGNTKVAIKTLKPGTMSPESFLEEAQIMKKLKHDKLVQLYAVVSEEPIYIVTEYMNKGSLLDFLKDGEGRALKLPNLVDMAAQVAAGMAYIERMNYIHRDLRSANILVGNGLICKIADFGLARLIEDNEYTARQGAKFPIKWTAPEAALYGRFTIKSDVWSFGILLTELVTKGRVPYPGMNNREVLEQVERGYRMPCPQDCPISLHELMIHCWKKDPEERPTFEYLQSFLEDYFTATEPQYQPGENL
Test: KINOMEscan competition binding
Conditions: read-out: %Inh FYN

| Compound | inhibition at 1 µM |
| --- | --- |
| O=c1cc(N2CCOCC2)nc2n(Cc3cccc(Cl)c3Cl)c(C3CC3)nn12 [UNC10225469A] | 6% |
| Cn1cc(-c2cnc(N)c3c(-c4ccc5c(c4)CCN5C(=O)Cc4ccccc4)csc23)cn1 [UNC10225012A] | 25% |
| CS(=O)(=O)Cc1ccc(Nc2nccc(-c3c(-c4cccc(NC(=O)C5CCCCC5)c4)nn4ncccc34)n2)cc1 [UNC10225159A] | 1% |
| COc1cccc(OC)c1C(=O)Nc1cccc(-c2nn3ccccc3c2-c2ccnc(Nc3cccc(F)c3)n2)c1 [UNC10225310A] | 22% |
| Cc1ccc(NC(=O)Nc2cccc(C(F)(F)F)c2)cc1 [UNC10225187A] | 0% |

Molecular target: HIPK2 (Homo sapiens, UniProt Q9H2X6)
Sequence (Q9H2X6 whole entry): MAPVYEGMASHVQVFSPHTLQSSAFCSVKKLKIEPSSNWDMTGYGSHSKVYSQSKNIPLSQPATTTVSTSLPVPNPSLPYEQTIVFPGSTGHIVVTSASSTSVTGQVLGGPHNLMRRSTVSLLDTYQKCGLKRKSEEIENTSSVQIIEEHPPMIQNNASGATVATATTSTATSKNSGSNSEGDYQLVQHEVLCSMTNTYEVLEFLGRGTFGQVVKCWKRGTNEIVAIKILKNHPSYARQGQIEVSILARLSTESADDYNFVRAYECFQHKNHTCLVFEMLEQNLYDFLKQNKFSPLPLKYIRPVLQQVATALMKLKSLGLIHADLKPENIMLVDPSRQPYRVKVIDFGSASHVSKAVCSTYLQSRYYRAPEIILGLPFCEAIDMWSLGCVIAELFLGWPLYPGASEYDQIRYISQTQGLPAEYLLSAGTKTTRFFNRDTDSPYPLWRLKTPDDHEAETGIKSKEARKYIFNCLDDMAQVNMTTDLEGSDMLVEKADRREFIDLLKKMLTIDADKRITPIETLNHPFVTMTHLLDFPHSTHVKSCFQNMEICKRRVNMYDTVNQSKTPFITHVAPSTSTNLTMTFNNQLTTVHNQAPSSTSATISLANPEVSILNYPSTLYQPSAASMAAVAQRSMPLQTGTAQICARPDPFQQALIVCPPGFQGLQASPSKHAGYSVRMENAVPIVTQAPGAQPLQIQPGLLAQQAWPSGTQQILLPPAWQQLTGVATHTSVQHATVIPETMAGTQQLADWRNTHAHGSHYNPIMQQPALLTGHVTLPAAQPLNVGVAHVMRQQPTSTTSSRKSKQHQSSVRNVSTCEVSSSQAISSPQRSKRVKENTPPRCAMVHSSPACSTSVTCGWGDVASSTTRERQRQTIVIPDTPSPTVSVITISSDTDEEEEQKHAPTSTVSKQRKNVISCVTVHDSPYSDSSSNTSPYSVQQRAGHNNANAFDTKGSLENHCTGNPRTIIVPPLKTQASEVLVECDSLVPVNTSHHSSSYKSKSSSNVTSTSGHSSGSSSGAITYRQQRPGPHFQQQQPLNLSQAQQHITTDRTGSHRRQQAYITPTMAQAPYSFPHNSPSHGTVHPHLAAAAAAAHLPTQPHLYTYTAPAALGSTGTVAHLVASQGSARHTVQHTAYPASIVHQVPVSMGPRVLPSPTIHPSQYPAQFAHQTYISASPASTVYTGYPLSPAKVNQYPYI
Test: KINOMEscan competition binding
Conditions: read-out: %Inh HIPK2

| Compound | inhibition at 1 µM |
| --- | --- |
| O=c1cc(N2CCOCC2)nc2n(Cc3cccc(Cl)c3Cl)c(C3CC3)nn12 [UNC10225469A] | 0% |
| Cn1cc(-c2cnc(N)c3c(-c4ccc5c(c4)CCN5C(=O)Cc4ccccc4)csc23)cn1 [UNC10225012A] | 0% |
| CS(=O)(=O)Cc1ccc(Nc2nccc(-c3c(-c4cccc(NC(=O)C5CCCCC5)c4)nn4ncccc34)n2)cc1 [UNC10225159A] | 14% |
| COc1cccc(OC)c1C(=O)Nc1cccc(-c2nn3ccccc3c2-c2ccnc(Nc3cccc(F)c3)n2)c1 [UNC10225310A] | 0% |
| Cc1ccc(NC(=O)Nc2cccc(C(F)(F)F)c2)cc1 [UNC10225187A] | 0% |

Reference: PMC5540273, “Progress towards a public chemogenomic set for protein kinases and a call for contributions” (PLoS ONE, 2017)
